Experimental findings from patent US8748415B2 (priority 2011, dated 2014) are described below.

SMILES strings stand for the structures.

The EC50 is the concentration at which the effect is half-maximal.

This test deals with recombinant NL4-3 virus (Renilla luciferase in nef, Gag P373S). The test can be described thus: HIV cell culture assay (luciferase activity in MT-2 cells infected with NLRluc recombinant virus). The settings on record: NL43, MT-2 cells infected 4-5 days with NLRluc recombinant virus, class symbol. Type of test: cell-based. The method in brief:
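MT-2 cells in RPMI/10% FBS were infected with recombinant NL4-3 (NLRluc), produced by 293T transfection and titered in MT-2 by luciferase. Serial inhibitor dilutions were present throughout a 4–5 day infection. Antiviral activity was quantified as Renilla luciferase signal via a modified Dual Luciferase read.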
For `C=C(C)[C@@H]1CC[C@]2(CNCCN(C)CCS(C)(=O)=O)CC[C@]3(C)[C@H](CC[C@@H]4[C@@]5(C)CC=C(c6ccc(C(=O)O)cc6)C(C)(C)[C@@H]5CC[C@]43C)[C@@H]12` [Example 85, 4-((1R,3aS,5aR,5bR,7aR,11aS,11bR,13aR,13bR)-5a,5b,8,8,11a-pentamethyl-3a-((2-(methyl(2-(methylsulfonyl)ethyl)amino)ethylamino)methyl)-1-(prop-1-en-2-yl)-2,3,3a,4,5,5a,5b,6,7,7a,8,11,11a,11b,12,13,13a,13b-octadecahydro-1H-cyclopenta[a]chrysen-9-yl)benzoic acid], the EC50 was under 100 nM.

For `C=C(C)[C@@H]1CC[C@]2(CNCCN3CCSCC3)CC[C@]3(C)[C@H](CC[C@@H]4[C@@]5(C)CC=C(c6ccc(C(=O)O)cc6)C(C)(C)[C@@H]5CC[C@]43C)[C@@H]12` [Example 86], the EC50 is under 100 nM.

`C=C(C)[C@@H]1CC[C@]2(CNCCCN3CCCC3=O)CC[C@]3(C)[C@H](CC[C@@H]4[C@@]5(C)CC=C(c6ccc(C(=O)O)cc6F)C(C)(C)[C@@H]5CC[C@]43C)[C@@H]12` [Example 87, 3-fluoro-4-((1R,3aS,5aR,5bR,7aR,11aS,11bR,13aR,13bR)-5a,5b,8,8,11a-pentamethyl-3a-((3-(2-oxopyrrolidin-1-yl)propylamino)methyl)-1-(prop-1-en-2-yl)-2,3,3a,4,5,5a,5b,6,7,7a,8,11,11a,11b,12,13,13a,13b-octadecahydro-1H-cyclopenta[a]chrysen-9-yl)benzoic acid]: the EC50 is under 100 nM.

Consider `C=C(C)[C@@H]1CC[C@]2(CNCCCN3CCCC3=O)CC[C@]3(C)[C@H](CC[C@@H]4[C@@]5(C)CC=C(c6ccc(C(=O)O)c(F)c6)C(C)(C)[C@@H]5CC[C@]43C)[C@@H]12` [Example 88, 2-fluoro-4-((1R,3aS,5aR,5bR,7aR,11aS,11bR,13aR,13bR)-5a,5b,8,8,11a-pentamethyl-3a-((3-(2-oxopyrrolidin-1-yl)propylamino)methyl)-1-(prop-1-en-2-yl)-2,3,3a,4,5,5a,5b,6,7,7a,8,11,11a,11b,12,13,13a,13b-octadecahydro-1H-cyclopenta[a]chrysen-9-yl)benzoic acid], for which the EC50 was under 100 nM.

Turning to `C=C(C)[C@@H]1CC[C@]2(CNCCC(=O)N3CCCC3)CC[C@]3(C)[C@H](CC[C@@H]4[C@@]5(C)CC=C(c6ccc(C(=O)O)cc6F)C(C)(C)[C@@H]5CC[C@]43C)[C@@H]12` [Example 89, 3-fluoro-4-((1R,3aS,5aR,5bR,7aR,11aS,11bR,13aR,13bR)-5a,5b,8,8,11a-pentamethyl-3a-((3-oxo-3-(pyrrolidin-1-yl)propylamino)methyl)-1-(prop-1-en-2-yl)-2,3,3a,4,5,5a,5b,6,7,7a,8,11,11a,11b,12,13,13a,13b-octadecahydro-1H-cyclopenta[a]chrysen-9-yl)benzoic acid], the half-maximal effective concentration (EC50) was under 100 nM.

Consider `C=C(C)[C@@H]1CC[C@]2(CNCCC(=O)N3CCCC3)CC[C@]3(C)[C@H](CC[C@@H]4[C@@]5(C)CC=C(c6ccc(C(=O)O)c(F)c6)C(C)(C)[C@@H]5CC[C@]43C)[C@@H]12` [Example 90, 2-fluoro-4-((1R,3aS,5aR,5bR,7aR,11aS,11bR,13aR,13bR)-5a,5b,8,8,11a-pentamethyl-3a-((3-oxo-3-(pyrrolidin-1-yl)propylamino)methyl)-1-(prop-1-en-2-yl)-2,3,3a,4,5,5a,5b,6,7,7a,8,11,11a,11b,12,13,13a,13b-octadecahydro-1H-cyclopenta[a]chrysen-9-yl)benzoic acid], for which the EC50 was under 100 nM.

As to `C=C(C)[C@@H]1CC[C@]2(CNCCN3CCCC3=O)CC[C@]3(C)[C@H](CC[C@@H]4[C@@]5(C)CC=C(c6ccc(C(=O)O)c(F)c6)C(C)(C)[C@@H]5CC[C@]43C)[C@@H]12` [Example 91, 2-fluoro-4-((1R,3aS,5aR,5bR,7aR,11aS,11bR,13aR,13bR)-5a,5b,8,8,11a-pentamethyl-3a-((2-(2-oxopyrrolidin-1-yl)ethylamino)methyl)-1-(prop-1-en-2-yl)-2,3,3a,4,5,5a,5b,6,7,7a,8,11,11a,11b,12,13,13a,13b-octadecahydro-1H-cyclopenta[a]chrysen-9-yl)benzoic acid], the 50% effective concentration (EC50) was under 100 nM.

`C=C(C)[C@@H]1CC[C@]2(CNCCCN3CCS(=O)(=O)CC3)CC[C@]3(C)[C@H](CC[C@@H]4[C@@]5(C)CC=C(c6ccc(C(=O)O)cc6F)C(C)(C)[C@@H]5CC[C@]43C)[C@@H]12` [Example 92, 4-((1R,3aS,5aR,5bR,7aR,11aS,11bR,13aR,13bR)-3a-(((3-(1,1-dioxido-4-thiomorpholinyl)propyl)amino)methyl)-1-isopropenyl-5a,5b,8,8,11a-pentamethyl-2,3,3a,4,5,5a,5b,6,7,7a,8,11,11a,11b,12,13,13a,13b-octadecahydro-1H-cyclopenta[a]chrysen-9-yl)-3-fluorobenzoic acid]: the half-maximal effective concentration (EC50) is under 100 nM.

As to `C=C(C)[C@@H]1CC[C@]2(CNCCCN3CCS(=O)(=O)CC3)CC[C@]3(C)[C@H](CC[C@@H]4[C@@]5(C)CC=C(c6ccc(C(=O)O)c(F)c6)C(C)(C)[C@@H]5CC[C@]43C)[C@@H]12` [Example 93, 4-((1R,3aS,5aR,5bR,7aR,11aS,11bR,13aR,13bR)-3a-(((3-(1,1-dioxido-4-thiomorpholinyl)propyl)amino)methyl)-1-isopropenyl-5a,5b,8,8,11a-pentamethyl-2,3,3a,4,5,5a,5b,6,7,7a,8,11,11a,11b,12,13,13a,13b-octadecahydro-1H-cyclopenta[a]chrysen-9-yl)-2-fluorobenzoic acid], the EC50 is under 100 nM.

As to `C=C(C)[C@@H]1CC[C@]2(CNCCN3CCS(=O)(=O)CC3)CC[C@]3(C)[C@H](CC[C@@H]4[C@@]5(C)CC=C(c6ccc(C(=O)O)cc6F)C(C)(C)[C@@H]5CC[C@]43C)[C@@H]12` [Example 94, 4-((1R,3aS,5aR,5bR,7aR,11aS,11bR,13aR,13bR)-3a-(((2-(1,1-dioxido-4-thiomorpholinyl)ethyl)amino)methyl)-1-isopropenyl-5a,5b,8,8,11a-pentamethyl-2,3,3a,4,5,5a,5b,6,7,7a,8,11,11a,11b,12,13,13a,13b-octadecahydro-1H-cyclopenta[a]chrysen-9-yl)-3-fluorobenzoic acid], the EC50 is under 100 nM.

For `C=C(C)[C@@H]1CC[C@]2(CNCCN3CCS(=O)(=O)CC3)CC[C@]3(C)[C@H](CC[C@@H]4[C@@]5(C)CC=C(c6ccc(C(=O)O)c(F)c6)C(C)(C)[C@@H]5CC[C@]43C)[C@@H]12` [Example 95, 4-((1R,3aS,5aR,5bR,7aR,11aS,11bR,13aR,13bR)-3a-(((2-(1,1-dioxido-4-thiomorpholinyl)ethyl)amino)methyl)-1-isopropenyl-5a,5b,8,8,11a-pentamethyl-2,3,3a,4,5,5a,5b,6,7,7a,8,11,11a,11b,12,13,13a,13b-octadecahydro-1H-cyclopenta[a]chrysen-9-yl)-2-fluorobenzoic acid], the EC50 is under 100 nM.

For the compound `C=C(C)[C@@H]1CC[C@]2(CNCCC(=O)N3CCCCC3)CC[C@]3(C)[C@H](CC[C@@H]4[C@@]5(C)CC=C(c6ccc(C(=O)O)cc6)C(C)(C)[C@@H]5CC[C@]43C)[C@@H]12` [Example 96, 4-((1R,3aS,5aR,5bR,7aR,11aS,11bR,13aR,13bR)-5a,5b,8,8,11a-pentamethyl-3a-((3-oxo-3-(piperidin-1-yl)propylamino)methyl)-1-(prop-1-en-2-yl)-2,3,3a,4,5,5a,5b,6,7,7a,8,11,11a,11b,12,13,13a,13b-octadecahydro-1H-cyclopenta[a]chrysen-9-yl)benzoic acid], the EC50 was under 100 nM.

As to `C=C(C)[C@@H]1CC[C@]2(CNCCC(=O)N3CCN(S(=O)(=O)N(C)C)CC3)CC[C@]3(C)[C@H](CC[C@@H]4[C@@]5(C)CC=C(c6ccc(C(=O)O)cc6)C(C)(C)[C@@H]5CC[C@]43C)[C@@H]12` [Example 97, 4-((1R,3aS,5aR,5bR,7aR,11aS,11bR,13aR,13bR)-3a-((3-(4-(N,N-dimethylsulfamoyl)piperazin-1-yl)-3-oxopropylamino)methyl)-5a,5b,8,8,11a-pentamethyl-1-(prop-1-en-2-yl)-2,3,3a,4,5,5a,5b,6,7,7a,8,11,11a,11b,12,13,13a,13b-octadecahydro-1H-cyclopenta[a]chrysen-9-yl)benzoic acid], the EC50 was under 100 nM.

`C=C(C)[C@@H]1CC[C@]2(CNCCC(=O)N3CCC(C(=O)OCC)CC3)CC[C@]3(C)[C@H](CC[C@@H]4[C@@]5(C)CC=C(c6ccc(C(=O)O)cc6)C(C)(C)[C@@H]5CC[C@]43C)[C@@H]12` [Example 98, 4-((1R,3aS,5aR,5bR,7aR,11aS,11bR,13aR,13bR)-3a-((3-(4-(ethoxycarbonyl)piperidin-1-yl)-3-oxopropylamino)methyl)-5a,5b,8,8,11a-pentamethyl-1-(prop-1-en-2-yl)-2,3,3a,4,5,5a,5b,6,7,7a,8,11,11a,11b,12,13,13a,13b-octadecahydro-1H-cyclopenta[a]chrysen-9-yl)benzoic acid]: the EC50 was under 100 nM.

As to `C=C(C)[C@@H]1CC[C@]2(CNCCC(=O)NCCC(=O)N(C)C)CC[C@]3(C)[C@H](CC[C@@H]4[C@@]5(C)CC=C(c6ccc(C(=O)O)cc6)C(C)(C)[C@@H]5CC[C@]43C)[C@@H]12` [Example 99, 4-((1R,3aS,5aR,5bR,7aR,11aS,11bR,13aR,13bR)-3a-((3-(3-(dimethylamino)-3-oxopropylamino)-3-oxopropylamino)methyl)-5a,5b,8,8,11a-pentamethyl-1-(prop-1-en-2-yl)-2,3,3a,4,5,5a,5b,6,7,7a,8,11,11a,11b,12,13,13a,13b-octadecahydro-1H-cyclopenta[a]chrysen-9-yl)benzoic acid], the EC50 is under 100 nM.
